Data on five molecules can be found in article PMC8217266 (Clinical Pharmacology and Therapeutics, 2021).

In data set [1] the test system is transporters at major organ sites. Nature of the data set: Prediction of transporter-mediated inhibition / DDI potential. Also noted: species or system human. To be noted: of 11 transporters; FDA criteria.
The test system of data set [2] is triglycerides, LDL cholesterol, and total cholesterol, biomarkers of OCT1 activity. Nature of the data set: UCSF EHR analysis: lipid levels in patients with HIV, on vs off drug. It counts as in vivo, human.
Another data set deals with T1, human MATE1 (Homo sapiens, UniProt Q96FL8).
T1 sequence (Q96FL8 1-570): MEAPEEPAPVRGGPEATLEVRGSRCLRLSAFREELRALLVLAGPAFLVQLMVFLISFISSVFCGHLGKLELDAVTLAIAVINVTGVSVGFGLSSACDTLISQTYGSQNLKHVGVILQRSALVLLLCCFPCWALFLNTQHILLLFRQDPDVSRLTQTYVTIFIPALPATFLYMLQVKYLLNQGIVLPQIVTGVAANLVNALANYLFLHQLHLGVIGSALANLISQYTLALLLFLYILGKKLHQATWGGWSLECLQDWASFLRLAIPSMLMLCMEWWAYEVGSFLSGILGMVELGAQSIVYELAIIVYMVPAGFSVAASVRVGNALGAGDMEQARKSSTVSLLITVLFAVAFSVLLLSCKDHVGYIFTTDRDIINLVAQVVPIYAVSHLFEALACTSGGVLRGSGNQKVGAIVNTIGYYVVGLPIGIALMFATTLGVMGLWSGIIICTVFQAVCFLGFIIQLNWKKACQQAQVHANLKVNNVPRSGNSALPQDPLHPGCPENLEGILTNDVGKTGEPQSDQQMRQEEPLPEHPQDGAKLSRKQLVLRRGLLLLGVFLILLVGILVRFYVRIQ
Put plainly: cell-based.

For data set [3], the target named is T2, human MATE2 (Homo sapiens, UniProt Q86VL8). Nature of the data set: cell-based.
A further data set deals with T3, human OATP1B3 (Homo sapiens, UniProt Q9NPD5).
T3 sequence (Q9NPD5 1-702): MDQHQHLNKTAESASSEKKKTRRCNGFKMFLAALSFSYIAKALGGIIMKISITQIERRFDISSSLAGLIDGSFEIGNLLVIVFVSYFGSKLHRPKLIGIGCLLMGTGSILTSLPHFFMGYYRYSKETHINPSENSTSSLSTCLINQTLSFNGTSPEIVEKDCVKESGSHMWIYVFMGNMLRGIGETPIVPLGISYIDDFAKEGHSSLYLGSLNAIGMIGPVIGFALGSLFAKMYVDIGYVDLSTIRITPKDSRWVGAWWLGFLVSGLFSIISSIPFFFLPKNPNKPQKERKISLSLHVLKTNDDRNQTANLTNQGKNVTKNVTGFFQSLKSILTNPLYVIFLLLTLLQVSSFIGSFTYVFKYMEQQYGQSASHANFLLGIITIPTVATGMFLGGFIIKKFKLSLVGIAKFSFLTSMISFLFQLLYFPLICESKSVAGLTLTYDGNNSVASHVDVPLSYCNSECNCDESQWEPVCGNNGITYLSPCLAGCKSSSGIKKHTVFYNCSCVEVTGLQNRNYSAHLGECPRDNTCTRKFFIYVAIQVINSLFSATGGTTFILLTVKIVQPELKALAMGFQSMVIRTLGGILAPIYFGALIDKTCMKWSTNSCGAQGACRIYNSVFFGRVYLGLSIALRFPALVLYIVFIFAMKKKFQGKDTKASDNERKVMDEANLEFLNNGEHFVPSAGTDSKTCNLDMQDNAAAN

The next data set deals with T4, human OCT1 (Homo sapiens, UniProt O15245).
T4 sequence (O15245 1-554): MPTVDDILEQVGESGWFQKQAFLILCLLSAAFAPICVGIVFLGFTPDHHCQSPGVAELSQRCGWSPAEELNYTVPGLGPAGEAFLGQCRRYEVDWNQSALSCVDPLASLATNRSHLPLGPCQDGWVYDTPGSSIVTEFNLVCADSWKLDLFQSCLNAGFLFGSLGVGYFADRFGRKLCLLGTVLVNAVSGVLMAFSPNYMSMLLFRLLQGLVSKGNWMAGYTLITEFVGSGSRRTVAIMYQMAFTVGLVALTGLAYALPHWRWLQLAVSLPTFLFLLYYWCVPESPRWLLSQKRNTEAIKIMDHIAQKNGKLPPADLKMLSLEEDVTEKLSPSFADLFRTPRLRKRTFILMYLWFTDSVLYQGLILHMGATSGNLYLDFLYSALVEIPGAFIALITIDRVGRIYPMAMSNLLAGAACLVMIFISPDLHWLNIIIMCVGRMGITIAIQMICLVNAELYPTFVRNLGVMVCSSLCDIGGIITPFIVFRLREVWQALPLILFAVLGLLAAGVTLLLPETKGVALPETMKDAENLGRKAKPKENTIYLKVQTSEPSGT
To be noted: for Iu,in,max/IC50 OCT1: human.

Data set [4] deals with T5, human OCT2 (Homo sapiens, UniProt O15244).
T5 sequence (O15244 1-555): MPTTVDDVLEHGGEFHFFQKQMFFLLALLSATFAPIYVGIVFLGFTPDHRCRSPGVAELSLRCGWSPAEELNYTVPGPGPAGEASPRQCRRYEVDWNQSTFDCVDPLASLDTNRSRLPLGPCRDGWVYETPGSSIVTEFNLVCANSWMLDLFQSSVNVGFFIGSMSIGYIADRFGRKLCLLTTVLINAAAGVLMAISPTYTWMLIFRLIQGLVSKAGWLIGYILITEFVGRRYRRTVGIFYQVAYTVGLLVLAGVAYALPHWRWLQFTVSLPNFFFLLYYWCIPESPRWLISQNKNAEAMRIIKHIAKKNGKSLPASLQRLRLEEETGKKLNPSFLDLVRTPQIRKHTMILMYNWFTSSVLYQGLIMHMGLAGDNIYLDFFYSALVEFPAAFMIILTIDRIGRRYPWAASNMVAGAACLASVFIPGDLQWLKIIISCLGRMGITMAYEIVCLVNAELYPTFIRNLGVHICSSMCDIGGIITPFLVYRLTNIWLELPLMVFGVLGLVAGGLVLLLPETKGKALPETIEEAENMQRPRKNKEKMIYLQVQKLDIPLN

For data set [5], the target named is T5, human OCT2. Nature of the data set: cell-based. The following applies: IC50 OCT2, experimental, mean ± SD; substrate metformin.
Data set [6] concerns uric acid, a biomarker of BCRP activity. Put plainly: UCSF EHR analysis: serum/plasma uric acid, on vs off drug. It counts as in vivo, human.
Data set [7] addresses T2, human MATE2.

T2 sequence (Q86VL8 1-566 isoform Q86VL8-3): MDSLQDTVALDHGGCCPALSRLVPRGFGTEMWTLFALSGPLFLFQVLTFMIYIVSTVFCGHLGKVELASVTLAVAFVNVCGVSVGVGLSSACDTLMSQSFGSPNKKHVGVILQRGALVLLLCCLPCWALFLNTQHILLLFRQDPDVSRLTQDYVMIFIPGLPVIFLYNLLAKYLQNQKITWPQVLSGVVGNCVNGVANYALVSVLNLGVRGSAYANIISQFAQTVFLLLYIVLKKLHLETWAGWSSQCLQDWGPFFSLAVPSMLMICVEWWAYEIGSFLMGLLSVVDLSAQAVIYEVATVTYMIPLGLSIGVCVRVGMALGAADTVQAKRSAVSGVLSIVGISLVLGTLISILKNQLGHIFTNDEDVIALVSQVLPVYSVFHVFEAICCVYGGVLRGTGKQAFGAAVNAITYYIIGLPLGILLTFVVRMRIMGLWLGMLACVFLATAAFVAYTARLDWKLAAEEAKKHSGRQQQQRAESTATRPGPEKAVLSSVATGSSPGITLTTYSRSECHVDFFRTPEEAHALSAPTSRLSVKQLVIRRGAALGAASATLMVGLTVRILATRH

As to `CC(C)CN(C[C@@H](O)[C@H](Cc1ccccc1)NC(=O)O[C@H]1CO[C@H]2OCC[C@H]21)S(=O)(=O)c1ccc(N)cc1` [Darunavir], in data set [1], the “No. of transporters at major organ sites inhibited at clinical concentrations” value was 5. Moreover, the “LDL cholesterol, Median On drug” value in data set [2] (matched 1:2, off drug 95) is 100/95 mg/dL. Further, the “Total cholesterol, Median On drug” value in data set [2] (matched 1:2, off drug 166) is on record as 180/166 mg/dL. Further, the “LDL cholesterol, Average On drug” value in [2] (matched 1:2, on n=357, off n=714, off drug 98.7, P 0.0077) was 105/98.7 mg/dL. In [2] (matched 1:2, on n=364, off n=728, off drug 170, P 5.18E-06), the “Total cholesterol, Average On drug” value was 183/170 mg/dL. Besides, the “Triglyceride, Average On drug” value in [2] (matched 1:2, on n=386, off n=772, off drug 160, P 0.00022) is listed as 180/160 mg/dL. The values for the IC50 against human MATE1 and on human MATE2 [3] were 43800 ± 14400 nM and 30.7 ± 20.2 µM, respectively.

As for `CCC(CC)COC(=O)[C@H](C)N[P@](=O)(OC[C@H]1O[C@@](C#N)(c2ccc3c(N)ncnn23)[C@H](O)[C@@H]1O)Oc1ccccc1` [Remdesivir], in data set [1], the “No. of transporters at major organ sites inhibited at clinical concentrations” value is given as 4. The IC50 against human MATE1 came out at 400 ± 100 nM; against human MATE2 [3] it was 15.2 ± 9.7 µM.

For the molecule `N#CC[C@H](C1CCCC1)n1cc(-c2ncnc3[nH]ccc23)cn1` [Ruxolitinib], in data set [1], the “No. of transporters at major organ sites inhibited at clinical concentrations” value is reported as 1. The “Iu,in,max/IC50 OATP1B3” value at human OATP1B3 was determined as 0.008. Moreover, on human OCT1, the “Iu,in,max/IC50 OCT1” value stood at 0.02. Besides, the “Cu,max/IC50 OCT2” value on human OCT2 [4] is listed as 0.003. The IC50 at human OCT2 [5] turned out to be 10.7 ± 3.7 µM; against human MATE1 it was 700 ± 10 nM; against human MATE2 [3], 3.7 ± 2.3 µM.

Consider `CCCc1nn(C)c2c(=O)[nH]c(-c3cc(S(=O)(=O)N4CCN(C)CC4)ccc3OCC)nc12` [Sildenafil], for which, in data set [1], the “No. of transporters at major organ sites inhibited at clinical concentrations” value is on record as 4. For the same molecule, the “Median SUA On drug” value in data set [6] (criteria 1, off drug 5.7) is given as 6.7/5.7 mg/dL; in data set [6] (criteria 2, off drug 5.6), 6.9/5.6 mg/dL; in data set [6] (main analysis, matched 1:5, off drug 5.7, P <2.2E-16), 6.6/5.7 mg/dL. Besides, the “Cu,max/IC50 MATE2-K” value at human MATE2 [7] is recorded as 0.003. In addition, the IC50 against human OCT2 [5] is 68 ± 20.1 µM; against human MATE1, 2400 ± 100 nM; against human MATE2 [3] it was 14.4 ± 1.3 µM.

On to `CCOC(=O)c1c(CSc2ccccc2)n(C)c2cc(Br)c(O)c(CN(C)C)c12` [Umifenovir (Arbidol), Umifenovir], for which the “No. of transporters at major organ sites inhibited at clinical concentrations” value in data set [1] is reported as 6. Besides, on human OATP1B3, the “Iu,in,max/IC50 OATP1B3” value came to 0.73. Moreover, the “OCT1 inhibited more potently relative to OCT2” value on human OCT1 was at least 10 fold. Moreover, on human OCT1, the “Iu,in,max/IC50 OCT1” value turned out to be 3.93. Further, the “Cu,max/IC50 OCT2” value at human OCT2 [4] is on record as 0.006. Besides, the “Cu,max/IC50 MATE2-K” value at human MATE2 [7] came to 0.02. Besides, the IC50 against human OCT2 [5] was found to be 14.9 ± 4.9 µM; against human MATE1, 700 ± 200 nM; at human MATE2 [3] it was 4.1 ± 1.6 µM.

Usually IC50 stands for the concentration that inhibits the measured activity by half. A low value points to greater potency in that assay.
